Earlier results in article PMC9145865, “Effects of Rare Phytocannabinoids on the Endocannabinoid System of Human Keratinocytes” (International Journal of Molecular Sciences, 2022).

Tested on: transformed human keratinocytes
Parameters: method as in PMID 17157480
Conditions: hyperproliferative conditions; ref [46]; cited from earlier work

| SMILES | proliferation of transformed human keratinocytes |
| --- | --- |
| C=C(C)[C@@H]1CCC(C)=C[C@H]1c1c(O)cc(CCCCC)cc1O [CBD, cannabidiol] | inhibit the proliferation |
| CCCCCc1cc(O)c2c(c1)OC(C)(C)[C@@H]1CCC(C)=C[C@@H]21 [Δ^9-THC, Δ^9-tetrahydrocannabinol] | inhibit the proliferation |
